This passage reports IC50, Emax and inhibition results from article PMC7155171, “Probing the Open Global Health Chemical Diversity Library for Multistage-Active Starting Points for Next-Generation Antimalarials” (ACS Infectious Diseases, 2020).

Experiment [1] deals with P. falciparum Dd2 (PfLuc) line expressing firefly luciferase, asexual blood stage. The experiment is described as follows: microbe, parasite or virus in culture. The conditions noted are these: Plasmodium falciparum. Type of experiment: cell-based, Plasmodium falciparum.
Experiment [2] relates to P. falciparum (NF54) stage V gametocytes. The experiment is described as follows: Stage V gametocyte viability assay (MitoTracker Red CMXRos high content imaging). Type of experiment: cell-based, Plasmodium falciparum. Particulars: Plasmodium falciparum, NF54, 72 h; for inhibition at 2 µM: read-out: Stg V Gam primary screen: Inhibition % (2uM) (n=2).
Setting [3] is: DD2, 8-pt dose response, 96hr, read-out: P. falciparum Luciferase ABS 8-pt Reconfirmation Dose Response (96hr): IC50.
The mark [4] stands for this setting: DD2, 8-pt dose response, 96hr, read-out: P. falciparum Luciferase ABS 8-pt Reconfirmation Dose Response (96hr): Maximum inhibition (%).
The mark [5] stands for this setting: read-out: Stg V Gam dose response IC50 (µM) (n=3), 10-point dose response, n=3, 72 h.
Where [6] appears, read: read-out: GAM V IC50, stage V gametocytes, 72 h.

Where two headings read alike, the source gives them in different places.

What is called IC50 is the concentration at which inhibition is half-maximal. One may read the inhibition as the share of the control response that was lost under treatment.

In the case of `CN(Cc1ccco1)C[C@H]1OC[C@@H]2CCN(Cc3ccccn3)C[C@@H]21` [DDD01033585, CN(C[C@H]1OC[C@@H]2CCN(CC3=CC=CC=N3)C[C@H]12)CC1=CC=CO1], the IC50 in experiment [1] (setting [3]) stood at 1.65 µM; in experiment [2] (setting [5]) it was 3.17 µM. The Emax in experiment [1] (setting [4]) was 91.7%. The inhibition at 2 µM in experiment [2] stood at 76%.
For `Cc1cccc(CN2CCCC2c2cccc(Nc3nccs3)n2)c1` (stereo not drawn) [DDD01057018, CC1=CC=CC(CN2CCCC2C2=CC=CC(NC3=NC=CS3)=N2)=C1], the IC50 in experiment [1] (DD2, read-out: CDD P. falciparum Luciferase ABS 11-pt Reconfirmation Dose Response (48hr): IC50 (μM), 11-pt dose response, 48hr) was 0.914 µM; in experiment [1] (DD2, 8-pt dose response, 96hr, read-out: CDD P. falciparum Luciferase ABS 8-pt Reconfirmation Dose Response (96hr): IC50) it was 1.04 µM; in experiment [1] (DD2, 11-pt dose response, 96hr, read-out: CDD P. falciparum Luciferase ABS 11-pt Reconfirmation Dose Response (96hr): IC50), 0.53 µM; in experiment [2] (setting [6]) it was 0.12 µM; in experiment [2] (setting [5]) it was 0.115 µM. The Emax in experiment [1] (DD2, 8-pt dose response, 96hr, read-out: CDD P. falciparum Luciferase ABS 8-pt Reconfirmation Dose Response (96hr): Maximum inhibition (%)) came to 94.6%; in experiment [1] (DD2, 11-pt dose response, 48hr, read-out: CDD P. falciparum Luciferase ABS 11-pt Reconfirmation Dose Response (48hr): Maximum inhibition (%)) it was 93.5%; in experiment [1] (DD2, 11-pt dose response, 96hr, read-out: CDD P. falciparum Luciferase ABS 11-pt Reconfirmation Dose Response (96hr): Maximum inhibition (%)) it was 101%. In experiment [2], the inhibition at 2 µM amounted to 90.4%.
Turning to `CC(C)(C)c1cn2c(n1)C(CNCc1cnn3ccccc13)CCC2` (stereo not drawn) [DDD01062586, CC(C)(C)C1=CN2CCCC(CNCC3=C4C=CC=CN4N=C3)C2=N1], the IC50 in experiment [2] (setting [5]) came to 0.11 µM. The inhibition at 2 µM in experiment [2] stood at 84.4%.
`Cc1cn2c(n1)C(CNCc1cccc3c1OCO3)CCC2` (stereo not drawn) [DDD01073293, CC1=CN2CCCC(CNCC3=CC=CC4=C3OCO4)C2=N1]: the IC50 in experiment [2] (setting [5]) is 1.62 µM. Also, in experiment [2], the inhibition at 2 µM turned out to be 66.7%.
Taken in the same sequence, the figures for `CN(C)c1nc(N)nc(CN2CCCC2c2cccs2)n1` (stereo not drawn) [DDD01075894, CN(C)C1=NC(N)=NC(CN2CCCC2C2=CC=CS2)=N1] were 2.25 µM and 66%.
For the compound `CN(CCc1cccc2ccccc12)Cc1nc(N)nc(N(C)C)n1` [DDD01076782, CN(CCC1=C2C=CC=CC2=CC=C1)CC1=NC(N)=NC(=N1)N(C)C], the IC50 in experiment [1] (setting [3]) was 1.67 µM; in experiment [2] (setting [5]), 3.99 µM. Also, the inhibition at 2 µM in experiment [2] was found to be 74.3%.
Consider `CC(C)N(CCNC(=O)c1[nH]nc2ccc(I)cc12)C(C)C` [DDD01078603, CC(C)N(CCNC(=O)C1=C2C=C(I)C=CC2=NN1)C(C)C], for which the IC50 in experiment [2] (setting [5]) was greater than 10 µM. Moreover, in experiment [2], the inhibition at 2 µM was found to be 53.7%.
Turning to `COc1c(C)cnc(CN(C)C2CCCCC2)c1C` [DDD01078822, COC1=C(C)C=NC(CN(C)C2CCCCC2)=C1C], in experiment [2] (setting [5]), the IC50 is 1.45 µM. The inhibition at 2 µM in experiment [2] was found to be 84.8%.
Taken in the same sequence, the figures for `O=C(CN1CCc2sccc2C1)Nc1ccnc2ccnn12` [DDD01078865, O=C(CN1CCC2=C(C1)C=CS2)NC1=CC=NC2=CC=NN12] were 0.116 µM and 96.4%.
Taken in the same sequence, the figures for `CN1CCC(NCC(O)c2cccc(OCc3ccccc3)c2)CC1` (stereo not drawn) [DDD01079164, CN1CCC(CC1)NCC(O)C1=CC=CC(OCC2=CC=CC=C2)=C1] were 6.06 µM and 53.3%.
Taken in the same sequence, the figures for `Cc1cccc(CN2CCCn3c(nnc3Cn3cccn3)C2)n1` [DDD01084631, CC1=CC=CC(CN2CCCN3C(CN4C=CC=N4)=NN=C3C2)=N1] were 1.04 µM and 51.5%.
In the case of `O=C(C1CC2(CCNCC2)CN1)N1CCN(c2cccc(Cl)c2Cl)CC1` (stereo not drawn) [DDD01243908, ClC1=CC=CC(N2CCN(CC2)C(=O)C2CC3(CN2)CCNCC3)=C1Cl], the IC50 in experiment [2] (setting [5]) was determined as 4.94 µM. In addition, the inhibition at 2 µM in experiment [2] is 52.8%.
Regarding `COCC(C)NCc1nc(-c2ccc(C)cc2)c(-c2ccccn2)[nH]1` (stereo not drawn) [DDD01244737, COCC(C)NCC1=NC(=C(N1)C1=CC=C(C)C=C1)C1=CC=CC=N1], the IC50 in experiment [2] (setting [6]) and in experiment [2] (setting [5]) was 1.64 µM throughout. In addition, the inhibition at 2 µM in experiment [2] was found to be 72.4%.
Regarding `Fc1ccc2[nH]c(C3CCCN3Cc3c[nH]cn3)nc2c1` (stereo not drawn) [DDD01245473, FC1=CC=C2N=C(NC2=C1)C1CCCN1CC1=CN=CN1], the IC50 in experiment [2] (setting [5]) amounted to 1.88 µM. Besides, the inhibition at 2 µM in experiment [2] was found to be 53.9%.
Turning to `CCSCC(C)NCc1cn2ccccc2n1` (stereo not drawn) [DDD01245879, CCSCC(C)NCC1=CN2C=CC=CC2=N1], the IC50 in experiment [2] (setting [5]) turned out to be 1.71 µM. The inhibition at 2 µM in experiment [2] is 74%.
Taken in the same sequence, the figures for `CC(c1cccs1)N(C)Cc1cnc(-c2ccccn2)nc1` (stereo not drawn) [DDD01246628, CC(N(C)CC1=CN=C(N=C1)C1=CC=CC=N1)C1=CC=CS1] were 0.293 µM and 81.7%.
As for `Cc1ccc2nc(CN(C)Cc3n[nH]c4c3CCCCC4)[nH]c2c1C` [DDD01247714, CN(CC1=NC2=CC=C(C)C(C)=C2N1)CC1=C2CCCCCC2=NN1], in experiment [2] (setting [5]), the IC50 stood at 1.62 µM. Besides, the inhibition at 2 µM in experiment [2] came to 89.8%.
`CNc1cc(C)nc(NCc2cc(C)cc3c(C)c(C)[nH]c23)n1` [DDD01248198, CNC1=CC(C)=NC(NCC2=C3NC(C)=C(C)C3=CC(C)=C2)=N1]: the IC50 in experiment [2] (setting [6]) is 0.79 µM; in experiment [2] (setting [5]) it was 0.791 µM. In experiment [2], the inhibition at 2 µM is 70.7%.
On to `COCc1noc(-c2ccc(N(C)Cc3ncccc3C)nc2)n1` [DDD01248427, COCC1=NOC(=N1)C1=CC=C(N=C1)N(C)CC1=NC=CC=C1C], for which the IC50 in experiment [2] (setting [5]) worked out at 1.02 µM. The inhibition at 2 µM in experiment [2] came to 58.1%.
Regarding `CSc1ccc(-c2nc(CN3CCC(CN)C3)c(C)o2)cc1` (stereo not drawn) [DDD01250168, CSC1=CC=C(C=C1)C1=NC(CN2CCC(CN)C2)=C(C)O1], the IC50 in experiment [1] (setting [3]) is 1.6 µM; in experiment [2] (setting [5]), 2.42 µM. Also, in experiment [1] (setting [4]), the Emax turned out to be 93.1%. Further, the inhibition at 2 µM in experiment [2] turned out to be 63%.
Take `CCN(CCN(C)C)c1nc(CCN)nc2sc(C)c(C)c12` [DDD01251823, CCN(CCN(C)C)C1=C2C(C)=C(C)SC2=NC(CCN)=N1]: the IC50 in experiment [1] (setting [3]) was 1.8 µM; in experiment [2] (setting [5]), 4.42 µM. Moreover, the Emax in experiment [1] (setting [4]) amounted to 92.8%. The inhibition at 2 µM in experiment [2] came to 58.8%.
On to `Cc1ccc(-c2nc(CNC(C)CCO)[nH]c2-c2ccccn2)cc1` (stereo not drawn) [DDD01253542, CC(CCO)NCC1=NC(=C(N1)C1=CC=C(C)C=C1)C1=CC=CC=N1], for which the IC50 in experiment [1] (setting [3]) was 1.81 µM; in experiment [2] (setting [6]) it was 1.09 µM; in experiment [2] (setting [5]), 1.09 µM. Further, the inhibition at 2 µM in experiment [2] was found to be 70.9%.
Consider `CCSCCNc1nc(-c2ccccn2)nc2c1c(C)nn2C` [DDD01253625, CCSCCNC1=C2C(C)=NN(C)C2=NC(=N1)C1=CC=CC=N1], for which the IC50 in experiment [2] (setting [6]) worked out at 1.88 µM; in experiment [2] (setting [5]), 1.89 µM. Further, in experiment [2], the inhibition at 2 µM was 58.4%.
Taken in the same sequence, the figures for `Cc1nn(C)c2nc(-c3ccccn3)nc(NCCCOC(C)C)c12` [DDD01254389, CC(C)OCCCNC1=C2C(C)=NN(C)C2=NC(=N1)C1=CC=CC=N1] were 1.71 µM, 1.71 µM and 61.4%.
Consider `Cc1cc2nc(C(C)C)cc(NCC(c3ccccn3)N(C)C)n2n1` (stereo not drawn) [DDD01256956, CC(C)C1=NC2=CC(C)=NN2C(NCC(N(C)C)C2=CC=CC=N2)=C1], for which the IC50 in experiment [2] (setting [5]) was 0.933 µM. In addition, in experiment [2], the inhibition at 2 µM came to 64.8%.
Taken in the same sequence, the figures for `Cc1cnc2c(S(=O)(=O)NC3CCS(=O)(=O)C3)cccc2c1` (stereo not drawn) [DDD01296003, CC1=CN=C2C(C=CC=C2S(=O)(=O)NC2CCS(=O)(=O)C2)=C1] were 2.28 µM and 76.3%.
Regarding `COc1cc(CNC(c2ccccc2)c2nccn2C)cc(OC)c1` (stereo not drawn) [DDD01296506, COC1=CC(OC)=CC(CNC(C2=NC=CN2C)C2=CC=CC=C2)=C1], in experiment [2] (setting [5]), the IC50 is 0.513 µM. Moreover, the inhibition at 2 µM in experiment [2] amounted to 58.3%.
For the compound `Cc1cnn(CC2CCCN2Cc2nc(C)c3ccccc3n2)c1` (stereo not drawn) [DDD01298810, CC1=CN(CC2CCCN2CC2=NC(C)=C3C=CC=CC3=N2)N=C1], in experiment [2] (setting [5]), the IC50 came to 0.296 µM. For the same compound, the inhibition at 2 µM in experiment [2] amounted to 51.9%.
Taken in the same sequence, the figures for `Cc1nnc(NCc2ccccc2Cl)c(C#N)c1C` [DDD01302395, CC1=NN=C(NCC2=CC=CC=C2Cl)C(C#N)=C1C] were greater than 9.58 µM and 68.1%.
